In ChEMBL document CHEMBL4308894, “Synthesis and evaluation of biological activity for dual-acting antibiotics on the basis of azithromycin and glycopeptides” (Bioorg Med Chem Lett, 2019):
Values after ≈ are worked out from the molar mass of the structure shown. Active and inactive are the calls of the source. The calls are words filed in the database; no cut-off is given here.

Key:
[1] = tested on: Escherichia coli; assay: Induction of translation arrest in tolC-deficient Escherichia coli harboring pRFPCER-TrpL2A assessed as increase in pRFPCER-TrpL2A reporter activity at 10 mg/ml after overnight incubation by dual fluorescent-reporter gene assay; assay type: functional, organism-based
[2] = tested on: Staphylococcus aureus; assay: Antibacterial activity against Staphylococcus aureus isolate 10 infected in C57BL/6 mouse assessed as survival rate at 5.5 mg/kg, iv measured for 10 days (reference value: 0%); assay type: functional; conditions: isolate 10, iv, 240 h
[3] = tested on: Staphylococcus aureus; assay: Antibacterial activity against Staphylococcus aureus isolate 3797 by micro dilution method; assay type: functional
[4] = tested on: Staphylococcus aureus; assay: Antibacterial activity against Staphylococcus aureus isolate 10 infected in iv dosed C57BL/6 mouse measured for 10 days; assay type: functional; conditions: isolate 10, iv, 240 h
[5] = tested on: Enterococcus faecalis; assay: Antibacterial activity against Enterococcus faecalis isolate 560 by micro dilution method; assay type: functional
[6] = tested on: Escherichia coli; assay: Antibacterial activity against Escherichia coli ATCC 25922 by micro dilution method; assay type: functional
[7] = tested on: Staphylococcus aureus; assay: Antibacterial activity against Staphylococcus aureus isolate 10 infected in C57BL/6 mouse assessed as survival rate at 3.5 mg/kg, iv measured for 10 days (reference value: 0%); assay type: functional; conditions: isolate 10, iv, 240 h
[8] = tested on: Enterococcus faecium; assay: Antibacterial activity against Enterococcus faecium isolate 568 by micro dilution method; assay type: functional
[9] = tested on: Staphylococcus aureus; assay: Antibacterial activity against Staphylococcus aureus isolate 10 infected in C57BL/6 mouse assessed as survival rate at 6.5 mg/kg, iv measured for 10 days (reference value: 0%); assay type: functional; conditions: isolate 10, iv, 240 h
[10] = tested on: Enterococcus faecium; assay: Antibacterial activity against Enterococcus faecium isolate 569 by micro dilution method; assay type: functional
[11] = tested on: Salmonella typhimurium; assay: Antibacterial activity against Salmonella choleraesuis ATCC 14028 by micro dilution method; assay type: functional, Salmonella enterica subsp. enterica serovar Typhimurium; conditions: Salmonella enterica
[12] = tested on: Enterococcus gallinarum; assay: Antibacterial activity against Streptococcus gallinarum ATCC 35038 by micro dilution method; assay type: functional
[13] = tested on: Staphylococcus aureus; assay: Antibacterial activity against Staphylococcus aureus isolate 10 by micro dilution method; assay type: functional
[14] = tested on: Staphylococcus aureus; assay: Antibacterial activity against Staphylococcus aureus isolate 10 infected in C57BL/6 mouse assessed as survival rate at 4.5 mg/kg, iv measured for 10 days (reference value: 0%); assay type: functional; conditions: isolate 10, iv, 240 h
[15] = tested on: Staphylococcus aureus; assay: Antibacterial activity against Staphylococcus aureus isolate 3798 by micro dilution method; assay type: functional
[16] = tested on: Streptococcus pneumoniae; assay: Antibacterial activity against Streptococcus pneumoniae ATCC 49619 by micro dilution method; assay type: functional
[17] = tested on: Staphylococcus aureus; assay: Antibacterial activity against Staphylococcus aureus isolate 10 infected in C57BL/6 mouse assessed as survival rate at 2.5 mg/kg, iv measured for 10 days (reference value: 0%); assay type: functional; conditions: isolate 10, iv, 240 h
[18] = tested on: Staphylococcus epidermidis; assay: Antibacterial activity against Staphylococcus epidermidis isolate 533 by micro dilution method; assay type: functional
[19] = tested on: Staphylococcus aureus; assay: Antibacterial activity against Staphylococcus aureus isolate 1025 by micro dilution method; assay type: functional
[20] = tested on: Staphylococcus aureus; assay: Antibacterial activity against Staphylococcus aureus isolate 10 infected in C57BL/6 mouse assessed as survival rate at 7.5 mg/kg, iv measured for 10 days (reference value: 0%); assay type: functional; conditions: isolate 10, iv, 240 h
[21] = tested on: Streptococcus agalactiae; assay: Antibacterial activity against Streptococcus agalactiae isolate 52 by micro dilution method; assay type: functional
[22] = tested on: Staphylococcus aureus; assay: Antibacterial activity against Staphylococcus aureus ATCC 25923 by micro dilution method; assay type: functional
[23] = tested on: Klebsiella pneumoniae; assay: Antibacterial activity against Klebsiella pneumoniae ATCC 13883 by micro dilution method; assay type: functional
[24] = Elimination half life in patient with normal creatinine clearance; assay type: ADME; conditions: human, in vivo; read-out: beta t1/2
[25] = Half life in human serum; assay type: ADME, cell-free

Structure (SMILES) | Activity [1] | survival at 5.5 mg/kg [2] [%] | MIC [3] [µg/mL] | ED50 [4] [mg/kg] | MIC [5] [µg/mL] | MIC [6] [µg/mL] | survival at 3.5 mg/kg [7] [%] | MIC [8] [µg/mL] | survival at 6.5 mg/kg [9] [%] | MIC [10] [µg/mL] | MIC [11] [µg/mL] | MIC [12] [µg/mL] | MIC [13] [µg/mL] | survival at 4.5 mg/kg [14] [%] | MIC [15] [µg/mL] | MIC [16] [µg/mL] | MIC [18] [µg/mL] | MIC [19] [µg/mL] | MIC [21] [µg/mL] | MIC [23] [µg/mL] | further results
CC[C@H]1OC(=O)[C@H](C)[C@@H](O[C@H]2C[C@@](C)(OC)[C@@H](O)[C@H](C)O2)[C@H](C)[C@@H](O[C@@H]2O[C@H](C)C[C@H](N(C)C)[C@H]2O)[C@](C)(O)C[C@@H](C)C(=O)[C@H](C)[C@@H](O)[C@]1(C)O | Active |  |  |  |  |  |  |  |  |  |  |  |  |  |  |  |  |  |  |  | 
CC[C@H]1OC(=O)[C@H](C)[C@@H](O[C@H]2C[C@@](C)(OC)[C@@H](OC(=O)NCCNC(=O)[C@H]3NC(=O)[C@H]4NC(=O)[C@H](NC(=O)[C@@H]5NC(=O)[C@H](CC(N)=O)NC(=O)[C@H](NC(=O)[C@@H](CC(C)C)NC)[C@H](O)c6ccc(c(Cl)c6)Oc6cc5cc(c6O[C@@H]5O[C@H](CO)[C@@H](O)[C@H](O)[C@H]5O[C@H]5C[C@](C)(N)[C@H](O)[C@H](C)O5)Oc5ccc(cc5Cl)[C@H]4O[C@H]4C[C@](C)(N)[C@@H](O)[C@H](C)O4)c4ccc(O)c(c4)-c4c(O)cc(O)cc43)[C@H](C)O2)[C@H](C)[C@@H](O[C@@H]2O[C@H](C)C[C@H](N(C)C)[C@H]2O)[C@](C)(O)C[C@@H](C)CN(C)[C@H](C)[C@H]2OC(=O)O[C@]21C | Active | 70 | 4 (≈ 1.64 µM) | 4.7 | 16 (≈ 6.57 µM) | > 32 | 20 | 1 (≈ 0.411 µM) | 70 | 8 (≈ 3.28 µM) | > 32 | 4 (≈ 1.64 µM) | 0.06 (≈ 0.0246 µM) | 40 | 8 (≈ 3.28 µM) | 1 (≈ 0.411 µM) | 2 (≈ 0.821 µM) | 8 (≈ 3.28 µM) | 8 (≈ 3.28 µM) | > 32 | survival at 2.5 mg/kg [17]: 30%; survival at 7.5 mg/kg [20]: 80%; MIC [22]: 1 µg/mL (≈ 0.411 µM)
CN[C@H](CC(C)C)C(=O)N[C@H]1C(=O)N[C@@H](CC(N)=O)C(=O)N[C@H]2C(=O)N[C@H]3C(=O)N[C@H](C(=O)N[C@H](C(=O)O)c4cc(O)cc(O)c4-c4cc3ccc4O)[C@H](O)c3ccc(c(Cl)c3)Oc3cc2cc(c3O[C@@H]2O[C@H](CO)[C@@H](O)[C@H](O)[C@H]2O[C@H]2C[C@](C)(N)[C@H](O)[C@H](C)O2)Oc2ccc(cc2Cl)[C@H]1O [VANCOMYCIN] |  | 70 |  | 4.2 | > 32 | > 32 | 40 |  | 90 | > 32 | > 32 | 4 (≈ 2.76 µM) | 0.25 (≈ 0.173 µM) | 50 | 8 (≈ 5.52 µM) | 2 (≈ 1.38 µM) | 0.5 (≈ 0.345 µM) | 8 (≈ 5.52 µM) | 8 (≈ 5.52 µM) | > 32 | survival at 2.5 mg/kg [17]: 30%; half-life [24]: 6 to 12 h; survival at 7.5 mg/kg [20]: 100%
CC[C@H]1OC(=O)[C@H](C)[C@@H](O[C@H]2C[C@@](C)(OC)[C@@H](O)[C@H](C)O2)[C@H](C)[C@@H](O[C@@H]2O[C@H](C)C[C@H](N(C)C)[C@H]2O)[C@](C)(O)C[C@@H](C)CN(C)[C@H](C)[C@@H](O)[C@]1(C)O [AZITHROMYCIN] | Active |  | > 32 |  | > 32 | 8 (≈ 10.7 µM) |  | 8 (≈ 10.7 µM) |  | 8 (≈ 10.7 µM) | 16 (≈ 21.4 µM) | 4 (≈ 5.34 µM) | 1 (≈ 1.34 µM) |  | > 32 | 8 (≈ 10.7 µM) | 2 (≈ 2.67 µM) | 16 (≈ 21.4 µM) | > 32 | 16 (≈ 21.4 µM) | half-life [25]: 68 h; MIC [22]: 1 µg/mL (≈ 1.34 µM)
